From patent US20250381180A1, “METHODS OF TREATING OR PREVENTING OVERACTIVE BLADDER SYNDROME” (Purdue Pharma L.P., priority 2022, published 2025)
Entries after “also recorded” stand apart in the source; their conditions may differ.

How the values were obtained:
conscious SCI rats = assay: Cystometric parameters in conscious spinal cord injury (SCI) rats; assay type: in vivo, rat
Experimental: Test substance effects were compared to those of the reference substance, the β3-adrenoceptor agonist mirabegron, marketed for overactive bladder.
• At W-5, spinal cord injury was performed at T8 level as described below. • Over W-5, rats were treated daily with gentamicin. • Over W-5 and W-4, bladder was emptied manually once a day. • From W-5 to W0, animals were weighed once per week. • At D-2 (W0), implantation of catheters was performed under isoflurane anaesthesia as described below. • At D0 (W0), cystometry was performed
Rats were anesthetized with isoflurane (3%). Body temperature was constantly maintained at 37° C. throughout the surgery by placing animals on a thermo-regulated hot plate. A laminectomy was performed and the spinal cord was sectioned with microscissors at T8 level. Care was taken to assure that the section was complete by verifying that a slight retraction of the two segments occurred. Then the muscle was sutured and the skin fixed with staples. The scar was cleaned by Vetedine. For the Sham group, the same surgery was performed without section of the spinal cord.
The urinary bladder was squeezed once a day for 14 days with a gentle massage of the abdomen until restoration of the micturition reflex. In addition, they were administered intramuscularly daily for one week with gentamicin (2 mg/mL, 0.2 ml/rat). Animals were euthanized if they reached humane endpoints: weight loss of greater than 20% of their body weight and/or abnormal behavioral changes indicating presence of pain and distress (prostration, self-mutilation, aggressiveness).
Rats were anesthetized with isoflurane (3%). Body temperature was constantly maintained at 37° C. throughout the surgery by placing animals on a thermo-regulated hot plate. A polyethylene catheter (0.58 and 0.96 mm of inner and outer diameters, respectively) was implanted in the bladder through the dome for intravesical pressure recording. Another catheter (0.58 and 0.96 mm of inner and outer diameters, respectively) was implanted in the stomach for intra-gastric administration. Catheters were exteriorized at the scapular level. After surgery, each rat was housed individually up to the end of the protocol with free access to food and water.
Animals were held under partial restraint in a restraining device. Saline was infused into the bladder at a constant flow rate of 2 or 6 mL/h for sham or SCI rats, respectively. After at least 45 min (3 complete micturition cycles corresponding to basal values), test substances were administered by intra-gastric route. Then, intravesical pressure was recorded for 90 min.
The following cystometric parameters were analyzed (see FIG. 10): • Amplitude of micturition (AM, mmHg). • Threshold pressure (ThP, mmHg). • Intercontraction interval (ICI, sec): time between basal pressure and ThP. ICI was not presented due to different infusion rate in sham and SCI rats. ICI was only analyzed to calculate the bladder capacity. • Bladder capacity (BC, mL) BC=ICI×infusion rate. • Amplitude of non voiding contractions (NVC, mmHg) • Frequency of NVC (number per min).
For each cystometric parameter and for each time period, the comparisons were performed as described below: • Basal values of each cystometric parameter of Sham/Vehicle and SCI/Vehicle groups were compared using unpaired student t test • Basal values of each cystometric parameter of all SCI groups were compared using one-way ANOVA or Kruskal-Wallis test • The 3 interval periods of 30 min post treatment of each cystometric parameter within the same group were compared to corresponding basal values using one-way ANOVA with repeated measures or Friedman test followed by Dunnett's or Dunn's post-test, respectively. • The 3 interval periods of 30 min post treatment of each cystometric parameter were compared between all SCI groups using one-way ANOVA or Kruskal Wallis test followed by Holm-Sidak's or Dunn's post-test versus Vehicle, respectively.

conscious BOO rats = assay: Cystometric parameters in conscious bladder outlet obstruction (BOO) rats; assay type: in vivo, rat
Experimental: Test substance effects were compared to those of the reference substance, mirabegron, marketed for overactive bladder.
• At W-6, a partial ligature of the urethra was performed. • At W-6, during 3 consecutive days, rats were treated daily with gentamycin and Ketofen® The bladder was emptied manually once a day. • From W-6 to W-1 animals were monitored and weighed once per week. • At W0 (D-2), catheters were implanted under isoflurane anesthesia. • At D0, cystometry was performed.
Appropriate amount of Cpd (IA) was weighed and dissolved in vehicle to obtain the dosing solution with the target concentration of 3 mg/mL (as free base). […]
[…] Mirabegron (from Kemprotec) was prepared fresh on the day of administration at a final concentration of 2 mg/mL (free base form). Appropriate mass of mirabegron was weighed and dissolved in vehicle (0.5% MC) at room temperature.

[1] = i.g., Cpd (IA) 30 mg/kg, mirabegron 10 mg/kg
[2] = 3 mg/kg i.v., 0-90 min entire period
[3] = 3 mg/kg i.v., 60-90 min interval period
[4] = i.g., 60-90 min interval period

SMILES: O=C(O)c1nc2ccccc2n([C@H]2C[C@H]3CCC[C@@H](C2)N3C2CC3CCCC(C3)C2)c1=O (stereo partly shown) [Cpd (IA)]
- % of variation from basal values of BC (conscious SCI rats; Cpd (IA) 30 mg/kg i.g., 0-30 min interval, mean±s.e.m., vehicle −0.4±15): −35±7%
- AM (amplitude of micturition), effect versus basal (conscious SCI rats; [1]): did not significantly modify
- AM (mmHg and % variation), effect versus vehicle (conscious SCI rats; [1]): not significantly modified
- BC expressed in % variation from basal, effect versus vehicle (conscious SCI rats; [1]): significantly decreased BC for the 0-30 min post-administration interval period; also recorded: significantly reduced BC, compared to vehicle, for the 0-30 min post-administration interval period
- BC expressed in mL, effect versus vehicle (conscious SCI rats; [1]): no significant difference
- NVC amplitude (mmHg or % variation), effect versus vehicle (conscious SCI rats; [1]): not significantly modified
- NVC amplitude, effect versus basal (conscious SCI rats; [1]): significantly decreased NVC amplitude for the 30-60 and 60-90 min post-administration interval periods
- NVC frequency (NVC/min and % variation), effect versus vehicle (conscious SCI rats; [1]): not significantly modified
- NVC frequency, effect versus basal (conscious SCI rats; [1]): significantly decreased NVC frequency for the 0-30 and 60-90 min interval periods
- ThP (mmHg and % variation), effect versus vehicle (conscious SCI rats; [1]): not significantly modified
- ThP (threshold pressure), effect versus basal (conscious SCI rats; [1]): no significant effect
- BC (bladder capacity), effect versus basal (conscious SCI rats; i.g., Cpd (IA) 30 mg/kg, mirabegron 10 mg/kg, 30-min interval periods to 90 min): significantly decreased BC for the 0-30 and 30-60 min post-administration interval periods
- NVC frequency, effect versus basal (conscious SCI rats; i.g., Cpd (IA) 30 mg/kg, mirabegron 10 mg/kg, listed as compound of formula (IA)): significantly decreased NVC frequency compared to basal value for the 0-30 and 60-90 min post-administration interval periods
- AM (mmHg or % variation), effect versus vehicle (conscious BOO rats; [2]): not significantly modified
- AM, effect versus basal (conscious BOO rats; [2]): did not significantly modify
- BC expressed in % variation from basal, effect versus vehicle (conscious BOO rats; [2]): significantly decreased
- BC expressed in mL, effect versus vehicle (conscious BOO rats; [2]): no significant difference
- NVC amplitude (mmHg and % variation), effect versus vehicle (conscious BOO rats; [2]): not significantly modified
- NVC amplitude, effect versus basal (conscious BOO rats; [2]): did not modify
- NVC frequency (NVC/min or % variation), effect versus vehicle (conscious BOO rats; [2]): not significantly modified
- NVC frequency, effect versus basal (conscious BOO rats; [2]): did not affect
- ThP expressed in mmHg, effect versus vehicle (conscious BOO rats; [2]): not significantly modified
- ThP, effect versus basal (conscious BOO rats; [2]): no significant effect
- ThP expressed in % variation from basal, effect versus vehicle (conscious BOO rats; 3 mg/kg i.v., 0-90 min entire period, p=0.0504): decreased after Cpd (IA) treatment, the p value was close to the significance
- AM (mmHg or % variation), effect versus vehicle (conscious BOO rats; [3]): no effect
- AM, effect versus basal (conscious BOO rats; [3]): did not significantly modify
- BC (mL and % variation), effect versus vehicle (conscious BOO rats; [3]): no significant difference
- NVC amplitude (mmHg and % variation), effect versus vehicle (conscious BOO rats; [3]): not significantly modified
- NVC amplitude, effect versus basal (conscious BOO rats; [3]): without any effect
- NVC frequency (NVC/min or % variation), effect versus vehicle (conscious BOO rats; [3]): unaffected
- NVC frequency, effect versus basal (conscious BOO rats; [3]): no significant effect
- ThP expressed in % variation from basal, effect versus vehicle (conscious BOO rats; [3]): significantly decreased
- ThP expressed in mmHg, effect versus vehicle (conscious BOO rats; [3]): not significantly modified
- ThP, effect versus basal (conscious BOO rats; [3]): significantly decreased
- BC, effect versus basal (conscious BOO rats; Cpd (IA) 3 mg/kg i.v., 0-90 min entire period): did not significantly modify
- BC, effect versus basal (conscious BOO rats; Cpd (IA) 3 mg/kg i.v., 60-90 min interval period): neither vehicle nor Cpd (IA) had a significant effect
- % of variation from basal values of BC (conscious BOO rats; Cpd (IA) 30 mg/kg i.g., 0-90 min entire period, vehicle 11±6): −13±6%
- AM (mmHg or % variation), effect versus vehicle (conscious BOO rats; i.g., 0-90 min entire period): not significantly modified
- AM, effect versus basal (conscious BOO rats; i.g., 0-90 min entire period): did not significantly modify
- BC expressed in % variation from basal, effect versus vehicle (conscious BOO rats; i.g., 0-90 min entire period): significantly decreased
- BC expressed in mL, effect versus vehicle (conscious BOO rats; i.g., 0-90 min entire period): no significant difference
- NVC amplitude expressed in % variation from basal, effect versus vehicle (conscious BOO rats; i.g., 0-90 min entire period): remained unaffected
- NVC amplitude expressed in mmHg, effect versus vehicle (conscious BOO rats; i.g., 0-90 min entire period): not significantly modified
- NVC amplitude, effect versus basal (conscious BOO rats; i.g., 0-90 min entire period): did not modify
- NVC frequency (NVC/min or % variation), effect versus vehicle (conscious BOO rats; i.g., 0-90 min entire period): not significantly modified
- NVC frequency, effect versus basal (conscious BOO rats; i.g., 0-90 min entire period): did not affect
- ThP expressed in % variation from basal, effect versus vehicle (conscious BOO rats; i.g., 0-90 min entire period): significantly decreased
- ThP expressed in mmHg, effect versus vehicle (conscious BOO rats; i.g., 0-90 min entire period): not significantly modified
- ThP, effect versus basal (conscious BOO rats; i.g., 0-90 min entire period): did not modify
- AM (mmHg or % variation), effect versus vehicle (conscious BOO rats; [4]): no effect
- AM, effect versus basal (conscious BOO rats; [4]): did not significantly modify
- BC expressed in % variation from basal, effect versus vehicle (conscious BOO rats; [4]): significantly decreased
- BC expressed in mL, effect versus vehicle (conscious BOO rats; [4]): no significant difference
- NVC amplitude expressed in % variation from basal, effect versus vehicle (conscious BOO rats; [4]): not significantly modified
- NVC amplitude expressed in mmHg, effect versus vehicle (conscious BOO rats; [4]): not significantly modified
- NVC amplitude, effect versus basal (conscious BOO rats; [4]): without any effect
- NVC frequency (NVC/min or % variation), effect versus vehicle (conscious BOO rats; [4]): unaffected
- NVC frequency, effect versus basal (conscious BOO rats; [4]): did not affect
- ThP expressed in % variation from basal, effect versus vehicle (conscious BOO rats; [4]): significantly decreased
- ThP expressed in mmHg, effect versus vehicle (conscious BOO rats; [4]): not significantly modified
- ThP, effect versus basal (conscious BOO rats; [4]): significantly decreased
- BC, effect versus basal (conscious BOO rats; i.g., Cpd (IA) 30 mg/kg, mirabegron 10 mg/kg, 0-90 min entire period): significantly decreased
- BC, effect versus basal (conscious BOO rats; i.g., Cpd (IA) 30 mg/kg, mirabegron 10 mg/kg, 60-90 min interval period): significantly decreased
- all other cystometric parameters (than BC and ThP), effect versus vehicle (conscious BOO rats; i.v., conclusions): no effect
